Results on 49 molecules are retold here after patent publication US7375222B2, “2,4,6-Triamino-1,3,5-triazine derivative” (Astellas Pharma Inc., priority 2002, dated 2008).

The term IC50 denotes the concentration that gives 50% inhibition. By melting point is commonly meant the temperature of the solid-liquid transition.

Where a name gives a salt, the structure may show the parent alone.

One data set addresses T1, BEC 1 potassium channel (Homo sapiens, UniProt Q9ULD8).
T1 construct: expressed in transfected cells
T1 sequence (Q9ULD8 1-1083): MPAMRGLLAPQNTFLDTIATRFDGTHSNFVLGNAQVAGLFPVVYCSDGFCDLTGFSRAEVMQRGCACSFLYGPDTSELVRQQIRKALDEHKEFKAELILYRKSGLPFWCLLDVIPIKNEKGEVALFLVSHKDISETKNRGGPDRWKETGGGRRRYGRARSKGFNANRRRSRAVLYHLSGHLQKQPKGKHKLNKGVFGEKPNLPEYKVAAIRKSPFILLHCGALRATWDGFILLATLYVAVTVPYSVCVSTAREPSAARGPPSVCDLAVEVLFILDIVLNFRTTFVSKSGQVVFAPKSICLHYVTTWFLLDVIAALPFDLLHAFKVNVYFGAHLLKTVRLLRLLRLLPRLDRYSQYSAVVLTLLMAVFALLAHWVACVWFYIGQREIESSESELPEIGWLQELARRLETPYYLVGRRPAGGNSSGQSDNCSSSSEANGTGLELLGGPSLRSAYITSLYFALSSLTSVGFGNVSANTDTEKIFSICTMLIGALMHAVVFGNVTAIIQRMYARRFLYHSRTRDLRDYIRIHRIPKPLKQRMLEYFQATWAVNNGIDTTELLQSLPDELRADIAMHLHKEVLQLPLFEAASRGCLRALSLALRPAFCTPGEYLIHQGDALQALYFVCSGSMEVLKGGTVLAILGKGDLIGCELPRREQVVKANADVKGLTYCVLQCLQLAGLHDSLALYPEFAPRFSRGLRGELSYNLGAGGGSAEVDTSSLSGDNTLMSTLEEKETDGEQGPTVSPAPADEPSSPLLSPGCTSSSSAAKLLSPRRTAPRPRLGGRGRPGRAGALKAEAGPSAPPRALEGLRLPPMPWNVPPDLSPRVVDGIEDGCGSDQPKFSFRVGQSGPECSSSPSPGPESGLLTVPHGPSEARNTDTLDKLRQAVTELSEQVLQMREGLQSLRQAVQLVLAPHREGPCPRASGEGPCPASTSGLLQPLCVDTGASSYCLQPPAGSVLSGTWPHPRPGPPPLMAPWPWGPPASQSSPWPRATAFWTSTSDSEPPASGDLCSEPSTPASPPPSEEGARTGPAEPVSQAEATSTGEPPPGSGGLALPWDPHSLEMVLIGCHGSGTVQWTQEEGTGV
The experiment in a line: BEC 1 inhibitory activity using released amount of 86Rb ions from BEC 1-expressing cells. It counts as cell-based. Conditions: 86Rb ion release, BEC 1-stably expressing CHO (dhfr-deficient) cell, 100 mM KCl stimulation; read-out: BEC1 IC50. How it is done:
In general, the potassium channel can pass Rb^+ ion similar to K^+ ion, so that the channel activity can be measured using release of a radioisotope ^86Rb^+ as a marker. By incubating cells expressing the novel potassium channel protein together with ^86RbCl (e.g., 18 hr, 37° C.), ^86Rb^+ can be incorporated into the cells. The cells are washed with a low K^+ concentration physiological saline (e.g., 4.5 mM K^+) and then suspended in the same solution. When a high K^+ concentration solution (e.g., 100 mM in final concentration) is added to the cell suspension, membrane potential of the cell is depolarized and the potassium channel therefore is activated. As a result, the intracellular ^86Rb^+ is released into the extracellular part, thus radioactivity of the extracellular solution can be used as a marker of the channel activity. It is possible to screen a compound and a peptide capable of modifying activity of the BEC 1 potassium channel protein, by comparing the radioactivity released into the extracellular part when the high K^+ concentration solution is added in the presence and absence of each drug to be tested.
Method for Measuring BEC 1 Inhibitory Activity of Compounds Using Released Amount of ^86Rb ions as the Index
The channel activity of BEC 1 was measured in accordance with the method described in WO 99/37677, using amount of a radioisotope ^86Rb ion released from a BEC 1-expressing cell as the index. That is, when an ^86Rb ion-incorporated BEC 1-expressing cell was stimulated with 100 mM KCl, the radioactivity released from the cell was used as the channel activity of BEC 1. The ^86Rb ions were incorporated into a BEC 1-stably expressing cell by culturing the cell (3 hours, 37° C.) in the presence of ^86RbCl (0.5 μCi/ml), and the un-incorporated ^86Rb ions were removed by washing three times with HEPES-buffered saline (pH 7.4, 2.5 mM KCl). The cells were incubated with HEPES-buffered saline containing a compound to be tested at room temperature for 15 minutes and then further incubated with 100 mM KCl-containing HEPES-buffered saline (pH 7.4) containing the compound to be tested at room temperature for 5 minutes. The extracellular medium was recovered, and then the remaining cells were lysed with 0.1 N NaOH and recovered.
The Cerenkov radioactivity of the extracellular medium and cell lysate was respectively measured, and their total was used as the total radioactivity. The released amount of ^86Rb ions was expressed by the percentage of extracellular medium radioactivity based on the total radioactivity. The value obtained in the presence of the compound was used as a test value, and the value obtained in the absence of the compound as a control value and the value obtained when not stimulated with 100 mM KCl as a blank value. Inhibitory action of each compound was expressed by % inhibition, namely (control value−test value)×100/(control value−blank value), or by an IC50 value calculated from the % inhibition. As the test results of typical compounds are shown in the following Tables 2 and 3, it was confirmed that said compounds have the BEC 1 potassium channel inhibitory action.
In this connection, as the BEC 1-expressing cell, a BEC 1-stably expressing cell prepared in accordance with the method described in WO 99/37677 using a dihydrofolate reductase (dhfr)-deficient strain of a Chinese hamster ovary cell was used.
As to `CC(C)Nc1nc(Nc2ccccc2)nc(Nc2ccc(Cl)cc2)n1` [Ex 46], the half-maximal inhibitory concentration (IC50) is 490 nM.

On to `Cc1ccc(Nc2nc(Nc3ccccc3)nc(NC(C)C)n2)cc1` [Ex 47], for which the half-maximal inhibitory concentration (IC50) turned out to be 720 nM.

In the case of `COc1ccc(Nc2nc(Nc3ccccc3)nc(NC(C)C)n2)cc1` [Ex 48], the IC50 came to 290 nM.

Turning to `CC(C)Nc1nc(Nc2ccccc2)nc(Nc2ccc(C(F)(F)F)cc2)n1` [Ex 49], the concentration for half-maximal inhibition (IC50) came out at 140 nM.

Regarding `[O-][n+]1ccc(CCNc2nc(Nc3ccccc3)nc(Nc3ccccc3)n2)cc1` [Example 740], the IC50 amounted to 4900 nM.

Regarding `c1ccc(Nc2nc(NCC3CCOCC3)nc(Nc3ccccc3)n2)cc1` [Example 741], the IC50 is 520 nM.

On to `CC(CCCC(C)(C)O)Nc1nc(Nc2ccccc2)nc(Nc2ccccc2)n1` (stereo not shown) [Example 742], for which the IC50 came out at 1400 nM.

As to `Fc1ccc(Nc2nc(NCc3ccnc(F)c3)nc(Nc3ccc(F)cc3)n2)cc1` [Example 743], the IC50 amounted to 100 nM.

Regarding `Nc1cc(CNc2nc(Nc3ccccc3)nc(Nc3ccc(F)cc3)n2)ccn1` [Example 747], the IC50 was found to be 3600 nM.

For `Fc1ccc(Nc2nc(NCc3ccco3)nc(Nc3ccccc3)n2)cc1` [Example 764], the IC50 was 47 nM.

Turning to `COCCNc1nc(Nc2ccccc2)nc(Nc2ccc(F)cc2)n1` [Example 771], the IC50 was 250 nM.

Consider `OCCNc1nc(Nc2ccccc2)nc(Nc2ccc(F)cc2)n1` [Example 773], for which the IC50 worked out at 1500 nM.

In the case of `OCCCNc1nc(Nc2ccccc2)nc(Nc2ccc(F)cc2)n1` [Example 774], the IC50 amounted to 550 nM.

As for `OCCCCNc1nc(Nc2ccccc2)nc(Nc2ccc(F)cc2)n1` [Example 775], the concentration for half-maximal inhibition (IC50) is 110 nM.

For the molecule `OCCCCCNc1nc(Nc2ccccc2)nc(Nc2ccc(F)cc2)n1` [Example 776], the IC50 is 140 nM.

With `OCCOCCNc1nc(Nc2ccccc2)nc(Nc2ccc(F)cc2)n1` [Example 777], the IC50 turned out to be 210 nM.

For the molecule `C[C@H](CO)Nc1nc(Nc2ccccc2)nc(Nc2ccc(F)cc2)n1` [Example 779], the IC50 came out at 700 nM.

For the molecule `CONc1nc(Nc2ccccc2)nc(Nc2ccc(F)cc2)n1` [Example 789], the half-maximal inhibitory concentration (IC50) worked out at 9500 nM.

With `CCONc1nc(Nc2ccccc2)nc(Nc2ccc(F)cc2)n1` [Example 790], the IC50 is 4700 nM.

With `CN(C)Nc1nc(Nc2ccccc2)nc(Nc2ccc(F)cc2)n1` [Example 791], the half-maximal inhibitory concentration (IC50) stood at 2200 nM.

`CCN(CC)CCCC(C)Nc1nc(Nc2ccccc2)nc(Nc2ccc(F)cc2)n1` (stereo not shown) [Example 794]: the concentration for half-maximal inhibition (IC50) was 3100 nM.

Consider `Fc1ccc(Nc2nc(NCc3ccnc(F)c3)nc(Nc3ccc(Cl)cc3)n2)cc1` [Example 797], for which the IC50 was 650 nM.

Consider `COCCNc1nc(Nc2ccccc2)nc(Nc2ccc(OC)cc2)n1` [Example 808], for which the half-inhibitory concentration (IC50) stood at 420 nM.

For the molecule `Nc1cccc(CNc2nc(Nc3ccccc3)nc(Nc3ccc(F)cc3)n2)n1` [Example 819], the IC50 stood at 1400 nM.

Consider `c1ccc(Nc2nc(NCc3ccncc3)nc(Nc3ccccc3)n2)cc1` [compound 1, N,N′-diphenyl-N″-(4-pyridylmethyl)-1,3,5-triazine-2,4,6-triamine], for which the IC50 came to 84 nM.

In the case of `C#CCNc1nc(Nc2ccccc2)nc(Nc2ccccc2)n1` [compound 16], the half-maximal inhibitory concentration (IC50) amounted to 360 nM.

Regarding `COCCCNc1nc(Nc2ccccc2)nc(Nc2ccccc2)n1` [compound 18], the concentration for half-maximal inhibition (IC50) stood at 1100 nM.

`CSCCCNc1nc(Nc2ccccc2)nc(Nc2ccccc2)n1` [compound 19]: the 50% inhibitory concentration (IC50) amounted to 1300 nM.

For `OCCCNc1nc(Nc2ccccc2)nc(Nc2ccccc2)n1` [compound 21], the IC50 was found to be 590 nM.

On to `OCCOCCNc1nc(Nc2ccccc2)nc(Nc2ccccc2)n1` [compound 23], for which the IC50 worked out at 240 nM.

For `O=C1OCCC1CNc1nc(Nc2ccccc2)nc(Nc2ccccc2)n1` (stereo not shown) [compound 24], the IC50 was 480 nM.

In the case of `Fc1ccc(Nc2nc(NCc3ccccc3)nc(Nc3ccc(F)cc3)n2)cc1` [compound 28], the 50% inhibitory concentration (IC50) is 390 nM.

Regarding `Fc1ccc(CNc2nc(Nc3ccc(F)cc3)nc(Nc3ccc(F)cc3)n2)cc1` [compound 29], the IC50 came out at 350 nM.

`Fc1ccc(Nc2nc(NCc3ccco3)nc(Nc3ccc(F)cc3)n2)cc1` [compound 30]: the IC50 worked out at 73 nM.

As for `Fc1ccc(Nc2nc(NCc3cccs3)nc(Nc3ccc(F)cc3)n2)cc1` [compound 31], the IC50 turned out to be 490 nM.

In the case of `COCCNc1nc(Nc2ccc(F)cc2)nc(Nc2ccc(F)cc2)n1` [compound 35], the 50% inhibitory concentration (IC50) was found to be 240 nM.

Regarding `Fc1ccc(Nc2nc(NCC3CCCO3)nc(Nc3ccc(F)cc3)n2)cc1` (stereo not shown) [compound 36], the IC50 was determined as 480 nM.

As to `OCCCCCNc1nc(Nc2ccc(F)cc2)nc(Nc2ccc(F)cc2)n1` [compound 37], the 50% inhibitory concentration (IC50) was found to be 260 nM.

Take `OCCOCCNc1nc(Nc2ccc(F)cc2)nc(Nc2ccc(F)cc2)n1` [compound 38]: the concentration for half-maximal inhibition (IC50) was 180 nM.

In the case of `COc1cccc(Nc2nc(Nc3cccc(OC)c3)nc(NC(C)C)n2)c1` [compound 40], the IC50 came out at 630 nM.

For `CC(C)Nc1nc(Nc2ccc3c(c2)OCO3)nc(Nc2ccc3c(c2)OCO3)n1` [compound 41], the half-inhibitory concentration (IC50) amounted to 400 nM.

On to “N-isopropyl-N′,N″-bis(4-methoxyphenyl)-1,3,5-triazine-1,3,5-triamine hydrochloride [compound 39]”, for which the IC50 was determined as 660 nM.

Staying with this data set, now noted: concentration of test compound is 3 μM; 86Rb ion release.
Consider `CNc1nc(Nc2ccccc2)nc(Nc2ccccc2)n1` [compound 52], for which the Inhibition ratio was 31%.

Take `CCNc1nc(Nc2ccccc2)nc(Nc2ccccc2)n1` [compound 53]: the Inhibition ratio is 59%.

For `CCCNc1nc(Nc2ccccc2)nc(Nc2ccccc2)n1` [compound 54], the Inhibition ratio is recorded as 64%.

For `c1ccc(Nc2nc(Nc3ccccc3)nc(NC3CC3)n2)cc1` [compound 62], the Inhibition ratio is given as 44%.

Test system in another data set: not given
Test: not given
Conditions: not given
In turn, `COc1ccc(Nc2nc(Nc3ccccc3)nc(NC(C)C)n2)cc1` (as salt: HCl) (hydrate or solvate) [Ex 48] displayed a melting point of 174 to 177 °C.

`CONc1nc(Nc2ccccc2)nc(Nc2ccc(F)cc2)n1` (as salt: HCl) (hydrate or solvate) [Example 789]: the melting point fell in the range of 140 to 141 °C.

The molecule `CCONc1nc(Nc2ccccc2)nc(Nc2ccc(F)cc2)n1` (as salt: HCl) (hydrate or solvate) [Example 790] registered a melting point of 141 to 143 °C.
